Measurements as given in patent US11214803B2, “Modulators of YAP1 expression” (Ionis Pharmaceuticals, Inc., priority 2019, dated 2022).
Marks after values point to notes of the source that are not given here. Strand notation (5' to 3'): a small letter for the sugar, then the base; units joined by * are phosphorothioate-linked, units joined directly phosphodiester-linked; [ ] holds rarer units or linkages, { } end groups; capitals alone tell only the bases. e = 2'-O-(2-methoxyethyl) (MOE); k = constrained ethyl (cEt); [5mC] = 5-methylcytosine; d = 2'-deoxy (DNA)

How the values were obtained:
Yap1 mRNA [1] = test: Dose-dependent inhibition of human Yap1 in SNU-449 cells (Example 9, RTS36584); type: cell-based; details: free uptake; for % UTC (Yap1 mRNA): approximately 48 hours; for IC50: linear regression on a log/linear plot
How it was run: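 SNU-449 cells (10,000/well) took up modified oligonucleotides by free uptake at a range of doses for about 48 h. Yap1 mRNA was quantified with primer-probe set RTS36584, normalised to RIBOGREEN total RNA and expressed as % untreated control; IC50 from linear regression on log/linear plot.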

[2] = Tolerability in Sprague-Dawley rats, body and organ weights (Example 21); type: in vivo; details: male Sprague-Dawley rats, 50 mg/kg s.c. weekly for 6 weeks (7 doses); for Kidney weight / Liver weight / Spleen weight: end of study; for body weight: terminal, prior to necropsy
Method: Terminal body weight was measured prior to necropsy. Ionis oligonucleotides that caused any changes in organ weights outside the expected range for modified oligonucleotides were excluded from further studies.

Yap1 mRNA [3] = test: Dose-dependent inhibition of human Yap1 in A-431 cells (Example 8, 10,000 cells per well, RTS4814); type: cell-based; details: free uptake, approximately 48 hours, RTS4814; for Yap1 mRNA, % UTC: A-431 cells, 10,000 cells per well
How it was run: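 A-431 cells (10,000/well) dosed with modified oligonucleotides by free uptake; Yap1 mRNA measured ~48 h later with primer-probe set RTS4814, normalized to total RNA (RIBOGREEN). Values are % of untreated control; IC50 from linear regression on log/linear plot.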

[4] = Tolerability in Sprague-Dawley rats, kidney function, urine total protein to creatinine ratio (Example 21); details: male Sprague-Dawley rats, 50 mg/kg s.c. weekly for 6 weeks (7 doses)
Method: Male Sprague-Dawley rats were maintained on a 12-hour light/dark cycle and fed ad libitum with Purina normal rat chow. Groups of 4 Sprague-Dawley rats each were weekly injected subcutaneously with 50 mg/kg of Ionis oligonucleotide for 6 weeks (total 7 doses). Forty-eight hours after the last dose, the rats were euthanized; and organs, urine and plasma were harvested for further analysis.
To evaluate the effect of Ionis oligonucleotides on kidney function, urinary levels of total protein and creatinine were measured using an automated clinical chemistry analyzer (Hitachi Olympus AU400c, Melville, N.Y.).

[5] = Tolerability in Sprague-Dawley rats, plasma chemistry markers (Example 21); type: in vivo; details: male Sprague-Dawley rats, 50 mg/kg s.c. weekly for 6 weeks (7 doses), 48 hours after last dose
Method: Sprague-Dawley rats are a multipurpose model used for safety and efficacy evaluations. The rats were treated with Ionis modified oligonucleotides from the studies described in the Examples above and evaluated for changes in the levels of various plasma chemistry markers.

[6] = Cynomolgus monkey tolerability, hematology (Example 34); type: in vivo, cynomolgus monkeys; details: cynomolgus monkeys, 35 mg/kg subcutaneously, blood samples day 44
Method: To evaluate any effect of Ionis oligonucleotides in cynomolgus monkeys on hematologic parameters, blood samples of approximately 0.5 mL of blood was collected from each of the available study animals on day 44. The samples were collected in tubes containing K2-EDTA. Samples were analyzed for red blood cell (RBC) count, Hemoglobin (HGB), Hematocrit (HCT), Mean corpuscular volume (MCV), mean corpuscular hemoglobin (MCH), mean corpuscular hemoglobin concentration (MCHC), RBC Distribution Width (RCDW), reticulocyte count (Retic), platelet count (PLT), mean platelet volume (MPV), white blood cells (WBC) count, individual white blood cell counts, such as that of monocytes (MON), neutrophils (NEU), lymphocytes (LYM), eosinophils (EOS), basophils (BAS), and large unstained cells (LUC) using an ADVIA2120i hematology analyzer (Siemens, USA).

[7] = Cynomolgus monkey tolerability, urine analysis (Example 34); details: cynomolgus monkeys, 35 mg/kg subcutaneously, day 44
Method: Prior to the study, the monkeys were kept in quarantine during which the animals were observed daily for general health. The monkeys were 2-4 years old and weighed 2-4 kg. Eleven groups of 4 randomly assigned male cynomolgus monkeys each were injected subcutaneously with Ionis oligonucleotide or saline in a clock-wise rotation between four different sites on the back. Following loading doses on days 1, 3, 5 and 7, the monkeys were dosed once per week (on days 14, 21, 28, 35, and 42) with 35 mg/kg of Ionis oligonucleotide.
Food was removed overnight the day before fresh urine collection, but water was supplied. Fresh urine samples for urinalysis and urine chemistry were collected from all animals using a clean cage pan on wet ice (first in the morning) on day 44. Urinalysis/Urine Chemistry parameters creatinine (UCRE), microprotein (UTP), urine microalbumin (UALB), and protein/creatinine (P/C) ratio were measured using a Toshiba 120FR automated chemistry analyzer (Toshiba Co., Japan).

[8] = Cynomolgus monkey tolerability, coagulation (Example 34); type: in vivo; details: cynomolgus monkeys, 35 mg/kg subcutaneously, blood samples day 44
Method: To evaluate effect of Ionis modified oligonucleotides on coagulation in cynomolgus monkeys, blood samples of approximately 0.9 mL were collected from each of the available study animals on day 44. The samples were collected in tubes containing 3.2% sodium citrate. Coagulation parameters tested include Activated partial thromboplastin time (APTT), prothrombin time (PT) and Figrinogen (FIB).

ERK1/2 = test: Measurement of ERK activation (pERK/ERK) in SNU449 xenograft model with sorafenib (second Example 30); type: in vivo, human; details: SNU449 xenograft in mice, combination therapy compared with sorafenib treatment alone
Method: (§1) Five million SNU449 cells in 30% matrigel were implanted subcutaneously into the fatpads of female NOD.Cg-Prkdcscid II2rgtmlWjl/SzJ mice (from Jackson Laboratory) at 4-6 weeks of age. 43 days post implantation (when tumors had reached approximately 100 mm^3 in size), groups of eight mice each were administered with 50 mg/kg modified oligonucleotide daily for 10 days (loading dose), following which they were administered with 50 mg/kg modified oligonucleotide four times a week for one week, following which they were dosed with 50 mg/kg modified oligonucleotide thrice weekly until the end of the study.
Protein analysis was carried out using standard procedures. […] ERK protein levels were compared to internal control GAPDH. […] The secondary antibody used was donkey anti-rabbit NA934, GE Healthcare. pERK/ERK levels were calculated relative to PBS control to determine % activation of ERK1/2.

[9] = Cynomolgus monkey tolerability, kidney and liver function markers (Example 34); details: cynomolgus monkeys, 35 mg/kg subcutaneously, blood samples day 44
SNU449 xenograft tumor = test: Tumor volume in SNU449 xenograft tumor model, alone and in combination with sorafenib (second Example 30); type: in vivo, human; details: SNU449 xenograft in mice
Method: Modified oligonucleotides described in the studies above were tested in a hepatocellular carcinoma SNU449 xenograft tumor model. […] A control oligonucleotide 792169, described herein above, was also tested.
as §1, with “study. […] Animals were sacrificed, and tumors were collected on day 119 post implantation.” for “study.”
Tumor volumes were also measured at the indicated days in the table below.

[10] = Cynomolgus monkey tolerability, pro-inflammatory proteins analysis, Complement C3 and CRP (Example 34); type: in vivo; details: cynomolgus monkeys, 35 mg/kg subcutaneously, day 42 pre-dose and 24 hours post-dose
Method: To evaluate any inflammatory effect of Ionis oligonucleotides in cynomolgus monkeys, blood samples were taken for analysis. The monkeys were fasted overnight prior to blood collection. On day 42 (pre-dose and 24 hours post-dose), approximately 0.8 mL of blood was collected from each animal and put into tubes without anticoagulant for serum separation. […] Complement C3 were measured using a Toshiba 120 FR NEO chemistry analyzer (Toshiba Co., Japan). […] Another marker of inflammation, C-Reactive Protein (CRP) was tested together with the clinical chemistry parameters tested for liver function above.

[11] = Cynomolgus monkey tolerability, body and organ weight measurements (Example 34); type: in vivo; details: cynomolgus monkeys, 35 mg/kg subcutaneously, loading doses days 1, 3, 5, 7, then once per week
Method: Cynomolgus monkeys were treated with Ionis modified oligonucleotides selected from studies described in the Examples above. Modified oligonucleotide tolerability was evaluated.
During the study period, the monkeys were observed twice daily for signs of illness or distress. Any animal experiencing more than momentary or slight pain or distress due to the treatment, injury or illness was treated by the veterinary staff with approved analgesics or agents to relieve the pain after consultation with the Study Director. Any animal in poor health or in a possible moribund condition was identified for further monitoring and possible euthanasia. Scheduled euthanasia of the animals was conducted on day 86 approximately 48 hours after the last dose by exsanguination while under deep anesthesia. The protocols described in the Example were approved by the Institutional Animal Care and Use Committee (IACUC).
To evaluate the effect of Ionis oligonucleotides on the overall health of the animals, body and organ weights were measured. Terminal body weight was measured prior to necropsy.

Yap1 mRNA [12] = test: Inhibition of human Yap1 mRNA in SNU449 hepatocellular carcinoma xenograft tumors (Example 26); type: in vivo; details: SNU449 xenografts in NSG mice, 50 mg/kg twice weekly for five days, relative to PBS treated animals
Method: A SNU449 hepatocellular carcinoma xenograft tumor model was used to evaluate activity of modified oligonucleotides targeted to human Yap1. Ten million SNU449 cells in 30% matrigel were implanted subcutaneously into the flanks of female NOD Cg-Prkdcscid ll2rgtm1Wjl/SzJ (NSG) mice (from Jackson Laboratory) at 4-6 weeks of age. When tumors reached an average volume of 100 mm^3, approximately two weeks post-implantation, groups of four mice each were administered at 50 mg/kg twice weekly with modified oligonucleotides for five days. Tumors were collected and tested for Yap1 mRNA knockdown by RT-qPCR. Yap1 mRNA levels were measured as previously described using the Human Yap1 primer-probe set RTS4814. Yap1 mRNA levels were normalized to actin-beta content, as measured by primer probe set RTS5002. Results are presented in the tables below as percent control of the amount of Yap1 mRNA relative to PBS treated animals (% control).

Row | Substance | % UTC (Yap1 mRNA) (Yap1 mRNA [1]; 31.3 nM) [% UTC] | % UTC (Yap1 mRNA) (Yap1 mRNA [1]; 125.0 nM) [% UTC] | % UTC (Yap1 mRNA) (Yap1 mRNA [1]; 500.0 nM) [% UTC] | % UTC (Yap1 mRNA) (Yap1 mRNA [1]; 2000.00 nM) [% UTC] | IC50 (Yap1 mRNA [1]) [nM] | Kidney weight [2] | Liver weight [2] | Spleen weight [2] | body weight [2] [g] | URINE P/C ratio (total protein to creatinine ratio) [4] | ALT [5] | AST [5] | BUN [5] | TBIL [5] | also measured
1 | 1074756 (kG*k[5mC]*kA*d[5mC]*dT*dT*dT*dT*dA*d[5mC]*dA*dT*dT*kA*kG*kG) [compound 1074756] | 42 | 20 | 6 | 3 | < 30 | 4.71* g | 21* g | 1.99* g | 349 | 167 | 114* U/L | 79* U/L | 0.57* mg/dL | 0.10* mg/dL | Yap1 mRNA, % UTC (Yap1 mRNA [3]; 31.3 nM): 22 % UTC; Yap1 mRNA, % UTC (Yap1 mRNA [3]; 125.0 nM): 7 % UTC; Yap1 mRNA, % UTC (Yap1 mRNA [3]; 500.0 nM): 4 % UTC; Yap1 mRNA, % UTC (Yap1 mRNA [3]; 2000.00 nM): 4 % UTC; IC50 (Yap1 mRNA [3]; A-431 cells, linear regression on log/linear plot): < 20 nM
2 | ION 1198440 (AAGTGTATGTCAGAAG; cEt, 2'-MOE, 5-methylcytosine, phosphorothioate modifications, further chemistry not given here) |  |  |  |  |  |  |  |  |  |  |  |  |  |  | effect on hematologic parameters [6]: well tolerated; urine chemistry markers [7]: well tolerated; effect on coagulation parameters [8]: well tolerated; ERK1/2 activation (pERK/ERK relative to PBS control), combination with sorafenib (ERK1/2): significant decrease in ERK1/2 activation; effect on liver function [9]: well tolerated; tumor volume (SNU449 xenograft tumor; 50 mg/kg modified oligonucleotide alone): significant reduction in tumor volume; tumor volume, combination with sorafenib (SNU449 xenograft tumor; 50 mg/kg modified oligonucleotide plus 30 mg/kg sorafenib orally 7 times a week): further reduction in tumor volume; inflammation (Complement C3) [10]: did not cause any inflammation; effect on body and organ weights [11]: well tolerated
3 | 1198615 (kT*kT*kA*dA*dA*dG*dT*dG*dT*dA*dT*dG*kT*k[5mC]*kA*eG) [compound 1198615] | 52 | 23 | 5 | 2 | < 30 | 3.01 g | 16 g | 2.35 g | 369 | 8 | 38 U/L | 71 U/L | 21 mg/dL | 0.13 mg/dL | Yap1 mRNA in tumors, % control (Yap1 mRNA [12]): 62 % control
